Among the data in publication PMC3311999 (2011) are Km values, retold here.

The experiment concerns the target PI3K (PIK3CA/PIK3R1) (Homo sapiens, UniProt P42336). The experiment can be described thus: Michaelis-Menten kinetics. Type of experiment: biochemical.

The term Km denotes the concentration of substrate that gives half-maximal velocity.

PI3K (PIK3CA/PIK3R1), sequence (P42336 whole entry): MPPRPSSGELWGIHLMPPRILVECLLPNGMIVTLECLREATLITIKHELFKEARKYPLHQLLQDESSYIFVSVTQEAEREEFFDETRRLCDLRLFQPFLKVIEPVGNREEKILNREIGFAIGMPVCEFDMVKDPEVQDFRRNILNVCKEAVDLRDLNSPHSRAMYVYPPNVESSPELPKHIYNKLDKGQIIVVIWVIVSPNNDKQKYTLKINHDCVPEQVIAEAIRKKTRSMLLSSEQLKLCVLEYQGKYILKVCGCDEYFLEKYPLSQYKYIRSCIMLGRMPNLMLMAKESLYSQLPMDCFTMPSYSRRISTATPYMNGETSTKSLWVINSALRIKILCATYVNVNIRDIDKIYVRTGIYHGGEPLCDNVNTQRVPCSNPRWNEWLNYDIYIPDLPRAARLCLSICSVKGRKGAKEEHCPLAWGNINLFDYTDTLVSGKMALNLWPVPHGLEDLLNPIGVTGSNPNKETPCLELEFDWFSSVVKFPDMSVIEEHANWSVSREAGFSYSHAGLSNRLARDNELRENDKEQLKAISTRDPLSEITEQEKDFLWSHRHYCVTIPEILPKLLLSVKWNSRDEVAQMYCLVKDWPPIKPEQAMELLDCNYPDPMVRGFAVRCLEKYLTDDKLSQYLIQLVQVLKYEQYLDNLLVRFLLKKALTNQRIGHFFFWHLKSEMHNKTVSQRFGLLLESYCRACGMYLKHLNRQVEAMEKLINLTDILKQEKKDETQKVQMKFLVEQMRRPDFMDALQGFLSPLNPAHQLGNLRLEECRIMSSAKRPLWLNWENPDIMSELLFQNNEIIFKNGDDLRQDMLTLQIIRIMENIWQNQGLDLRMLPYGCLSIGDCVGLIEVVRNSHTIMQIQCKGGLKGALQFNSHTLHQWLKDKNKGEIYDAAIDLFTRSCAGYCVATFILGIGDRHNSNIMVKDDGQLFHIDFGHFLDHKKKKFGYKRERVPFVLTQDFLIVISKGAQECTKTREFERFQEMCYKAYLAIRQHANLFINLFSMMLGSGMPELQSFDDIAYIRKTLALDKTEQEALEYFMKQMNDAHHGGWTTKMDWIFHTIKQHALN
PI3K (PIK3CA/PIK3R1), sequence (P27986 2-724 partner): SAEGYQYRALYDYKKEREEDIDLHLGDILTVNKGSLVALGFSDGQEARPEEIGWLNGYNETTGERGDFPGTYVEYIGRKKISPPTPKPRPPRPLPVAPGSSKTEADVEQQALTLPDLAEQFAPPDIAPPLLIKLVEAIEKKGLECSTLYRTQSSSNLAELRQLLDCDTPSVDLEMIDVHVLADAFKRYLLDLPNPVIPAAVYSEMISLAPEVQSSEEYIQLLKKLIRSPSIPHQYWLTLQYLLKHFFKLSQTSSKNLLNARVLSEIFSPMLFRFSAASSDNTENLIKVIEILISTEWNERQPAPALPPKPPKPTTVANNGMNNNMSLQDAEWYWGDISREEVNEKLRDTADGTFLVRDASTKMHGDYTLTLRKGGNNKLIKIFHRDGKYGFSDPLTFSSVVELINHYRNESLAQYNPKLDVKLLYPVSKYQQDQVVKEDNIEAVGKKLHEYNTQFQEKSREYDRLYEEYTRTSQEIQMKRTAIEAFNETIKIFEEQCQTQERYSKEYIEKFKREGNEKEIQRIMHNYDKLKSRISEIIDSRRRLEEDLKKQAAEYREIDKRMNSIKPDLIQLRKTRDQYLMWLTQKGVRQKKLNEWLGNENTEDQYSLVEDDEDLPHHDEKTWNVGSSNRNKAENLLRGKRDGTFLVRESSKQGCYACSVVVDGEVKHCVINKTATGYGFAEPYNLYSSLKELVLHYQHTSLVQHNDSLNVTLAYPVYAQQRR

As for FL-PIP2, the Km was 44.8 ± 9.8 µM.

Regarding BODIPY-PIP2, the Km was found to be 68.7 ± 5.2 µM.
